Reference: paper PMC10867458, “Depolymerization of actin filaments by Cucurbitacin I through binding G‐actin” (Food Science & Nutrition, 2023)
Read-outs that look alike come from different tables or passages of the source.

Legend:
[1] = molecular target: T1, G-actin (rabbit skeletal muscle actin) (Oryctolagus cuniculus, UniProt P68135); test: differential scanning fluorimetry (SYPRO orange) with Kd; also pyrene-actin polymerization inhibition; assay type: binding
T1 construct: gene ACTA1

[2] = molecular target: T1, G-actin (rabbit skeletal muscle actin); test: pyrene-actin polymerization assay, […] (V50 […] vs control […]); assay type: biochemical
[3] = molecular target: T1, G-actin (rabbit skeletal muscle actin); test: as above; assay type: biochemical; remark: listed apart in the source

`CC(C)(O)/C=C/C(=O)[C@](C)(O)[C@H]1[C@H](O)C[C@@]2(C)[C@@H]3CC=C4[C@@H](C=C(O)C(=O)C4(C)C)[C@]3(C)C(=O)C[C@]12C` [CuI, Cucurbitacin I] was tested. Which Kd [1] did it give?
The Kd was 30 ± 2.5 nM.

`C=C1[C@@H](C)[C@H]2[C@H](Cc3ccccc3)NC(=O)[C@]23[C@H](OC(C)=O)/C=C/[C@@](C)(O)C(=O)[C@@H](C)C/C=C/[C@H]3[C@@H]1O` [Cytochalasin D] was tested. Which “V 50” value [2] did it give?
The value was 77.59 ± 7776.

For `C/C1=C\[C@H](C)C[C@H](C)OC(=O)C[C@H](c2ccc(O)cc2)NC(=O)[C@@H](Cc2c(Br)[nH]c3ccccc23)N(C)C(=O)[C@H](C)NC(=O)[C@@H](C)C1` [Jasplakinolide], which “V 50” value [3] is on record?
Its value is 54.7 ± 5114.
